Laboratory results as given in US8987268B2, “Pyrrolopyridazine JAK3 inhibitors and their use for the treatment of inflammatory and autoimmune diseases” (Bristol-Myers Squibb Company, priority 2011, dated 2015).
Counter-ions that a name gives are not always drawn. Like-named read-outs stand apart in the source and are kept apart here.

Legend:
GST-JAK3 enzyme = GST-JAK3 enzyme (Homo sapiens (Human), UniProt P52333); test: JAK3 Kinase Assay Protocol (Caliper); type: biochemical; settings: JAK3 kinase inhibition; read-out: LLE_JAK3_FB (IC50)
Protocol: JAK3 Kinase Assay Protocol (Caliper)
(§1) The assay reactions were performed in U-bottom 384-well plates. […] The reaction was initiated by the combination of GST-JAK3 enzyme with substrates and test compounds. The reactions were incubated at room temperature for 3 hours and terminated by adding 60 μl of 35 mM EDTA to each sample. Each reaction mixture was analyzed on the Caliper LabChip 3000 (Caliper, Hopkinton, Mass.) by electrophoretic separation of the fluorescent substrate and phosphorylated product. […] Compounds were dissolved at 10 mM in dimethylsulfoxide (DMSO) and evaluated at eleven concentrations. IC50 values were derived by non-linear regression analysis.

GST-JAK1 enzyme = GST-JAK1 enzyme (Homo sapiens (Human), UniProt P23458); test: JAK1 Kinase Assay Protocol; type: biochemical; settings: read-out: LLE_JAK1 (IC50)
Protocol: JAK1 Kinase Assay Protocol
as §1, with “GST-JAK1” for “GST-JAK3”

Chain of GST-JAK3 enzyme (P52333 whole entry): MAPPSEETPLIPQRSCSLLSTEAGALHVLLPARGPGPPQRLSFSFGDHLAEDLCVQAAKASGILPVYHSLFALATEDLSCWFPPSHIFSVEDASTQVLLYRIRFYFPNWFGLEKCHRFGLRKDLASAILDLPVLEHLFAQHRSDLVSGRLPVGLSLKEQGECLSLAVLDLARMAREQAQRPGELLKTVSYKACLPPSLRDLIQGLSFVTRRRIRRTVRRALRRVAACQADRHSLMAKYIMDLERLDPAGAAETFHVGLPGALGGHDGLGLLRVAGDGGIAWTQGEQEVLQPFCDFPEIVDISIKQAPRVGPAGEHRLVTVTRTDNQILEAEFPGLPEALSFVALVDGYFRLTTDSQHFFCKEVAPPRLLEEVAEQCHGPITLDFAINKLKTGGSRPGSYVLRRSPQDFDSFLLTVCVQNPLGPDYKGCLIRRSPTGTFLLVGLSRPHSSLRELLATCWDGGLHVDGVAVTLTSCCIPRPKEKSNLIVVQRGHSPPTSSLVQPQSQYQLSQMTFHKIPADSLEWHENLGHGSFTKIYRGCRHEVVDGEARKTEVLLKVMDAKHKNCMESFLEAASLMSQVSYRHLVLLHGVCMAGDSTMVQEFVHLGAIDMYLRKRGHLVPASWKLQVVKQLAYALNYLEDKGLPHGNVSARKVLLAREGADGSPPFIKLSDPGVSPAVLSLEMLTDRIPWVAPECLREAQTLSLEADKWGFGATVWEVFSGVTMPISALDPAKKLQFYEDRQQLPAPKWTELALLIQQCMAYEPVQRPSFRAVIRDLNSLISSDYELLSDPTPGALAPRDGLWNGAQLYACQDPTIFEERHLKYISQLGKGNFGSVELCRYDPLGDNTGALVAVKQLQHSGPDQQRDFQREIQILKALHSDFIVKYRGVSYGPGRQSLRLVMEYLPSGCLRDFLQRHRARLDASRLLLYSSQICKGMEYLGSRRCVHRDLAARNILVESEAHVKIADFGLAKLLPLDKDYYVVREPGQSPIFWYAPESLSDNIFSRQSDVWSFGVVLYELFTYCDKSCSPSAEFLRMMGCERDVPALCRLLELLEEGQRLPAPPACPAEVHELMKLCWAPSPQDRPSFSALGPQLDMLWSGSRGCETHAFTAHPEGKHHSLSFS
Chain of GST-JAK1 enzyme (P23458 whole entry): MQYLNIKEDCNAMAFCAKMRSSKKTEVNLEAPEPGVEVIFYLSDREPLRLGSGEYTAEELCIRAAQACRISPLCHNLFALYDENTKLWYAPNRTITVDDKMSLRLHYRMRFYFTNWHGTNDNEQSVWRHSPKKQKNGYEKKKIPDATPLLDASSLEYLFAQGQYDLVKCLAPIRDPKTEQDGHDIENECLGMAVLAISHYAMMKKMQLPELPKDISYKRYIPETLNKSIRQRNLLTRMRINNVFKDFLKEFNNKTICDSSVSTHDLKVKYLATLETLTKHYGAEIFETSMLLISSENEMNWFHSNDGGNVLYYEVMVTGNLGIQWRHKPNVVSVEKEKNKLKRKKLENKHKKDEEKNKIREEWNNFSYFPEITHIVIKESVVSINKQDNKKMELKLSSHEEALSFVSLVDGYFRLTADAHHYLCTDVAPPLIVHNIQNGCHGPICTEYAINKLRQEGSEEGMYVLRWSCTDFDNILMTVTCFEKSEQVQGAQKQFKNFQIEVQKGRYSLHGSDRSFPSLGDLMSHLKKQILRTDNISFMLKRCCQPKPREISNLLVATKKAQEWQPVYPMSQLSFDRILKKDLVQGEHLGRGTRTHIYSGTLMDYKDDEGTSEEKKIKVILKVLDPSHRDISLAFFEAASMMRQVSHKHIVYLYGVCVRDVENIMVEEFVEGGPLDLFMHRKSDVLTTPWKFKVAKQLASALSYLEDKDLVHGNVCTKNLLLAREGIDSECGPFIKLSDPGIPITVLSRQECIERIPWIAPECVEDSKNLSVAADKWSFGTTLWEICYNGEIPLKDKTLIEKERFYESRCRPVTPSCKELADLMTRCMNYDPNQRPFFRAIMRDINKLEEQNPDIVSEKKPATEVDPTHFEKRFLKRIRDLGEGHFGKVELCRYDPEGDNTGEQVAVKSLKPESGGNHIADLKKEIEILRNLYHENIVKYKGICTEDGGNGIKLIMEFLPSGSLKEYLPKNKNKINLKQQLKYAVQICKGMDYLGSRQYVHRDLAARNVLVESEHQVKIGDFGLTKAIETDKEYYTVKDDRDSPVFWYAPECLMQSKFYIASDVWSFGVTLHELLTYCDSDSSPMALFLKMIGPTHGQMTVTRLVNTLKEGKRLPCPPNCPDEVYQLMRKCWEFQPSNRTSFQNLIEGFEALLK

SMILES | IC50 (GST-JAK3 enzyme) | IC50 (GST-JAK1 enzyme; JAK1 kinase inhibition) | IC50 (GST-JAK1 enzyme)
C[C@@H]1[C@H]2CN(C(=O)C(C)(C)O)C[C@H]2C[C@H]1Nc1c(C(N)=O)cnn2cc(-c3cnn(C)c3)cc12 [Example 83, 4-((3aS,4R,5R,6aS)-2-(2-hydroxy-2-methylpropanoyl)-4-methyloctahydrocyclopenta[c]pyrrol-5-ylamino)-6-(1-methyl-1H-pyrazol-4-yl)pyrrolo[1,2-b]pyridazine-3-carboxamide] | 1.5 nM | 1.4 nM | 
CC[C@H]1CN(C(=O)C2(C#N)CC2)C[C@H]1Nc1c(C(N)=O)cnn2cc(-c3cn(C)nc3C)cc12 [Example 220, 4-((3S,4S)-1-(1-cyanocyclopropanecarbonyl)-4-ethylpyrrolidin-3-ylamino)-6-(1,3-dimethyl-1H-pyrazol-4-yl)pyrrolo[1,2-b]pyridazine-3-carboxamide] | 1.5 nM | 1.1 nM | 
CC[C@H]1CN(C(=O)C2(C#N)CC2)C[C@H]1Nc1c(C(N)=O)cnn2cc(-c3cc(C)no3)cc12 [Example 292, 4-(((3S,4S)-1-(1-cyanocyclopropanecarbonyl)-4-ethylpyrrolidin-3-yl)amino)-6-(3-methylisoxazol-5-yl)pyrrolo[1,2-b]pyridazine-3-carboxamide] | 0.5 nM | 0.7 nM | 
CS(=O)(=O)N1CCC[C@H](Nc2c(C(N)=O)cnn3cc(-c4ccccc4)cc23)C1 [Example 46, 4-(((3S)-1-(methylsulfonyl)-3-piperidinyl)amino)-6-phenylpyrrolo[1,2-b]pyridazine-3-carboxamide] | 20.9 nM | 58 nM | 
CO[C@H]1CN(C(=O)C2(C#N)CC2)C[C@H]1Nc1c(C(N)=O)cnn2cc(-c3ccc(F)cc3)cc12 [Example 305, 4-(((3R,4S)-1-(1-cyanocyclopropanecarbonyl)-4-methoxypyrrolidin-3-yl)amino)-6-(4-fluorophenyl)pyrrolo[1,2-b]pyridazine-3-carboxamide] | 1.5 nM | 1.1 nM | 
CC[C@H]1CN(c2ccc(C#N)cn2)C[C@H]1Nc1c(C(N)=O)cnn2cc(-c3ccc(=O)n(C)c3)cc12 [Example 173, 4-((3S,4S)-1-(5-cyanopyridin-2-yl)-4-ethylpyrrolidin-3-ylamino)-6-(1-methyl-6-oxo-1,6-dihydropyridin-3-yl)pyrrolo[1,2-b]pyridazine-3-carboxamide] | 0.4 nM | 0.8 nM | 
CCOC(=O)N1CCC[C@@H](Nc2c(C(N)=O)cnn3cc(-c4ccccc4)cc23)C1 [Example 51, ethyl (3R)-3-((3-carbamoyl-6-phenylpyrrolo[1,2-b]pyridazin-4-yl)amino)-1-piperidinecarboxylate] | 285 nM | 903 nM | 
CC[C@H]1CN(c2ccc(C#N)cn2)C[C@H]1Nc1c(C(N)=O)cnn2cc(-c3cnn(C)c3)cc12 [Example 175, 4-((3S,4S)-1-(5-cyanopyridin-2-yl)-4-ethylpyrrolidin-3-ylamino)-6-(1-methyl-1H-pyrazol-4-yl)pyrrolo[1,2-b]pyridazine-3-carboxamide] | 1.5 nM | 1.9 nM | 
C[C@@H]1[C@H]2CN(C(=O)C(C)(C)O)C[C@H]2C[C@H]1Nc1c(C(N)=O)cnn2cc(-c3cnc(N)nc3)cc12 [Example 62, 6-(2-amino-5-pyrimidinyl)-4-(((3aS,4R,5R,6aS)-2-(2-hydroxy-2-methylpropanoyl)-4-methyloctahydrocyclopenta[c]pyrrol-5-yl)amino)pyrrolo[1,2-b]pyridazine-3-carboxamide] | 1 nM | 3.6 nM | 
CCC(=O)N1C[C@H]2C[C@@H](Nc3c(C(N)=O)cnn4cc(-c5ccc(F)nc5)cc34)[C@H](C)[C@H]2C1 [Example 97, 6-(6-fluoropyridin-3-yl)-4-((3aS,4R,5R,6aS)-4-methyl-2-propionyloctahydrocyclopenta[c]pyrrol-5-ylamino)pyrrolo[1,2-b]pyridazine-3-carboxamide] | 1.4 nM | 3.1 nM | 
CC[C@H]1CN(C(=O)C2(C#N)CCC2)C[C@H]1Nc1c(C(N)=O)cnn2cc(-c3ccnc(Cl)c3)cc12 [Example 257, 6-(2-chloropyridin-4-yl)-4-((3S,4S)-1-(1-cyanocyclobutanecarbonyl)-4-ethylpyrrolidin-3-ylamino)pyrrolo[1,2-b]pyridazine-3-carboxamide] | 0.3 nM | 1.2 nM | 
CCCC(=O)O[C@H]1CCN(c2cc3c(N[C@@H]4CCN(c5ncc(C#N)cn5)CC4(C)C)c(C(N)=O)cnn3c2)C1=O [Example 122, (S)-1-(3-carbamoyl-4-(((R)-1-(5-cyanopyrimidin-2-yl)-3,3-dimethylpiperidin-4-yl)amino)pyrrolo[1,2-b]pyridazin-6-yl)-2-oxopyrrolidin-3-yl butyrate] | 1.4 nM | 2.4 nM | 
CC(=O)N1CCN(c2cc3c(N[C@@H]4C[C@@H]5CN(S(C)(=O)=O)C[C@@H]5[C@H]4C)c(C(N)=O)cnn3c2)C1=O [Example 60, 6-(3-acetyl-2-oxo-1-imidazolidinyl)-4-(((3aS,4R,5R,6aS)-4-methyl-2-(methylsulfonyl)octahydrocyclopenta[c]pyrrol-5-yl)amino)pyrrolo[1,2-b]pyridazine-3-carboxamide] | 1.8 nM | 0.8 nM | 
NC(=O)c1cnn2cc(-c3ccccc3F)cc2c1NC1CCOCC1 [Example 34, 6-(2-fluorophenyl)-4-(tetrahydro-2H-pyran-4-ylamino)pyrrolo[1,2-b]pyridazine-3-carboxamide] | 40 nM | 80 nM | 
NC(=O)c1cnn2cc(-c3ccccc3)cc2c1N[C@@H]1CCCNC1 [Example 48, (R)-6-phenyl-4-(piperidin-3-ylamino)pyrrolo[1,2-b]pyridazine-3-carboxamide, HCl] | 57.1 nM | 53.4 nM | 
C[C@@H]1[C@H]2CN(C(=O)CF)C[C@H]2C[C@H]1Nc1c(C(N)=O)cnn2cc(-c3cnc(N)c(F)c3)cc12 [Example 69, 6-(6-amino-5-fluoropyridin-3-yl)-4-((3aS,4R,5R,6aS)-2-(2-fluoroacetyl)-4-methyloctahydrocyclopenta[c]pyrrol-5-ylamino)pyrrolo[1,2-b]pyridazine-3-carboxamide] | 1.5 nM |  | 1.2 nM
CCNC(=O)c1ccc(-c2cc3c(N[C@@H]4CN(C(=O)C(C)(C)C#N)C[C@@H]4CC)c(C(N)=O)cnn3c2)cn1 [Example 252, 4-((3S,4S)-1-(2-cyano-2-methylpropanoyl)-4-ethylpyrrolidin-3-ylamino)-6-(6-(ethylcarbamoyl)pyridin-3-yl)pyrrolo[1,2-b]pyridazine-3-carboxamide] | 8.6 nM | 4.3 nM | 
NC(=O)c1cnn2cc(-c3cnc4ccccc4c3)cc2c1NC1CCOCC1 [Example 35, 6-(3-quinolinyl)-4-(tetrahydro-2H-pyran-4-ylamino)pyrrolo[1,2-b]pyridazine-3-carboxamide] | 40 nM | 40 nM | 
C[C@H]1CN(c2ccc(C#N)cn2)C[C@H]1Nc1c(C(N)=O)cnn2cc(-c3cnn(CC(=O)N4CC(F)(F)C4)c3)cc12 [Example 184, 4-(((3S,4S)-1-(5-cyanopyridin-2-yl)-4-methylpyrrolidin-3-yl)amino)-6-(1-(2-(3,3-difluoroazetidin-1-yl)-2-oxoethyl)-1H-pyrazol-4-yl)pyrrolo[1,2-b]pyridazine-3-carboxamide] | 0.4 nM | 0.2 nM | 
CNC(=O)c1ccc(-c2cc3c(N[C@@H]4C[C@@H]5CN(C(=O)C(C)(C)O)C[C@@H]5[C@H]4C)c(C(N)=O)cnn3c2)cn1 [Example 63, 4-(((3aS,4R,5R,6aS)-2-(2-hydroxy-2-methylpropanoyl)-4-methyloctahydrocyclopenta[c]pyrrol-5-yl)amino)-6-(6-(methylcarbamoyl)-3-pyridinyl)pyrrolo[1,2-b]pyridazine-3-carboxamide] | 0.7 nM | 0.4 nM | 
CNC(=O)Cn1cc(-c2cc3c(N[C@@H]4CN(c5ccc(Cl)cn5)C[C@@H]4C)c(C(N)=O)cnn3c2)cn1 [Example 188, 4-(((3S,4S)-1-(5-chloropyridin-2-yl)-4-methylpyrroldin-3-yl)amino)-6-(1-(2-(methylamino)-2-oxoethyl)-1H-pyrazol-4-yl)pyrrolo[1,2-b]pyridazine-3-carboxamide] | 0.5 nM | 0.4 nM | 
CC[C@@H]1CN(C(=O)[C@@H](O)CC)CC[C@H]1Nc1c(C(N)=O)cnn2cc(-c3cnn(C)c3)cc12 [Example 127, 4-(((3R,4R)-3-ethyl-1-((S)-2-hydroxybutanoyl)piperidin-4-yl)amino)-6-(1-methyl-1H-pyrazol-4-yl)pyrrolo[1,2-b]pyridazine-3-carboxamide] | 5.6 nM | 7.6 nM | 
C[C@@H]1[C@H]2CN(C(=O)CO)C[C@H]2C[C@H]1Nc1c(C(N)=O)cnn2cc(-c3ccc(C(=O)NC4CC4)cc3)cc12 [Example 70, 6-(4-(cyclopropylcarbamoyl)phenyl)-4-((3aS,4R,5R,6aS)-2-(2-hydroxyacetyl)-4-methyloctahydrocyclopenta[c]pyrrol-5-ylamino)pyrrolo[1,2-b]pyridazine-3-carboxamide] | 0.4 nM | 0.3 nM | 
CC[C@H]1CN(c2ncc(C#N)s2)C[C@H]1Nc1c(C(N)=O)cnn2cc(-c3cnn(CC(C)C)c3)cc12 [Example 183] | 0.2 nM | 0.8 nM | 
